Measurements reported in publication PMC7395068, “The evolution of strategies to minimise the risk of human drug-induced liver injury (DILI) in drug discovery and development” (Archives of Toxicology, 2020).
Like-named read-outs stand apart in the source and are kept apart here. Each block holds one molecule with its values, some of them ahead of it.

What was measured:
[1] = tested on: HepG2 cells, primary human hepatocytes; conditions: In vitro Assay; ref Garside 2014; cited from earlier work
[2] = cited from earlier work
[3] = read-out: Human plasma Cmax; total plasma Cmax.tot, median of 9 literature references; cited from earlier work
HepG2 cells = conditions: cited from earlier work
PHH = conditions: cited from earlier work; for PHH/100uM, Proctor (2017): IC50 threshold 100 µM; for PHH ATP <100uM: In vitro Assay, ref Proctor 2017
[4] = tested on: primary human hepatocytes, NIH3T3 fibroblasts, BSEP, CYP3A4; conditions: cited from earlier work
hLiMTs [5] = assay: Combined HCI (HCS) and cellular ATP 3D assay in hLiMTs; conditions: for hLiMTs <25x Avg Cmax ATP / hLiMTs <100x Avg Cmaxu ATP: ATP endpoint; for hLiMTs <25x Avg Cmax ATP / hLiMTs <25x Avg Cmax HCS / hLiMTs <25x Avg Cmax All: cut-off <25x Avg Cmax; for hLiMTs <100x Avg Cmaxu ATP / hLiMTs <100x Avg Cmaxu HCS / hLiMTs <100x Avg Cmaxu All: cut-off <100x Avg Cmaxu; for hLiMTs <25x Avg Cmax HCS / hLiMTs <100x Avg Cmaxu HCS: HCS endpoints; for hLiMTs <25x Avg Cmax All: all endpoints (ATP and HCS); for hLiMTs Cmax max All / hLiMTs Cmax min All / hLiMTs <10 uM All / hLiMTs <100x Avg Cmaxu All: all endpoints; for hLiMTs Cmax max All: Cmax max used; for hLiMTs Cmax min All: Cmax min used; for hLiMTs <10 uM All: cut-off <10 uM
[6] = plasma free fraction; cited from earlier work
[7] = cited from earlier work; remark: listed apart in the source
HepaRG spheroids = assay: Combined HCI (HCS) and cellular ATP 3D assay in HepaRG spheroids; conditions: for HepaRG <25x Avg Cmax ATP / HepaRG <100x Avg Cmaxu ATP: ATP endpoint; for HepaRG <25x Avg Cmax ATP / HepaRG <25x Avg Cmax HCS / HepaRG <25x Avg Cmax All: cut-off <25x Avg Cmax; for HepaRG <100x Avg Cmaxu ATP / HepaRG <100x Avg Cmaxu HCS / HepaRG <100x Avg Cmaxu All: cut-off <100x Avg Cmaxu; for HepaRG <25x Avg Cmax HCS / HepaRG <100x Avg Cmaxu HCS: HCS endpoints; for HepaRG <25x Avg Cmax All: all endpoints (ATP and HCS); for HepaRG Cmax max All / HepaRG Cmax min All / HepaRG <10 uM All / HepaRG <100x Avg Cmaxu All: all endpoints; for HepaRG Cmax max All: Cmax max used; for HepaRG Cmax min All: Cmax min used; for HepaRG <10 uM All: cut-off <10 uM; for DILI prediction HepaRG spheroids (HCS-MEC): Microtissue model structural based (HCI), combined HCS and ATP, MEC < 25 × Cmax.tot cut-off
[8] = tested on: isolated mouse liver mitochondria; conditions: In vitro Assay; ref Porceddu 2012; cited from earlier work
hLiMTs [9] = conditions: cited from earlier work; for hLiMTs ATP <100uM: In vitro Assay, ref Proctor 2017; for hLiMTs/100uM, Proctor (2017): IC50 threshold 100 µM
[10] = Plasma free fraction (fu) and unbound Cmax (Cmax,u); assay type: in vitro ADME, human; conditions: unbound plasma Cmax
[11] = tested on: THLE or HepG2 cells, isolated mitochondria, BSEP; conditions: cited from earlier work
[12] = 2D PHH, ATP, ref Proctor et al. 2017
[13] = In vitro Assay, ref Schadt 2015
[14] = Homo sapiens, read-out: HCS endpoint MEC
[15] = hLiMTs, ATP, ref Proctor et al. 2017

hLiMTs <25x Avg Cmax ATP (hLiMTs [5]): -ve
hLiMTs <100x Avg Cmaxu ATP (hLiMTs [5]): +ve (<100x Avg Cmaxu)
hLiMTs <25x Avg Cmax HCS (hLiMTs [5]): +ve
hLiMTs <100x Avg Cmaxu HCS (hLiMTs [5]): +ve (<100x Avg Cmaxu)
hLiMTs <25x Avg Cmax All (hLiMTs [5]): +ve
hLiMTs Cmax max All (hLiMTs [5]): +ve
hLiMTs Cmax min All (hLiMTs [5]): +ve
hLiMTs <10 uM All (hLiMTs [5]): -ve
hLiMTs <100x Avg Cmaxu All (hLiMTs [5]): +ve (<100x Avg Cmaxu)
HepaRG <25x Avg Cmax ATP (HepaRG spheroids): -ve
HepaRG <100x Avg Cmaxu ATP (HepaRG spheroids): -ve
HepaRG <25x Avg Cmax HCS (HepaRG spheroids): -ve
HepaRG <100x Avg Cmaxu HCS (HepaRG spheroids): -ve
HepaRG <25x Avg Cmax All (HepaRG spheroids): -ve
HepaRG Cmax max All (HepaRG spheroids): -ve
HepaRG Cmax min All (HepaRG spheroids): -ve
HepaRG <10 uM All (HepaRG spheroids): -ve
HepaRG <100x Avg Cmaxu All (HepaRG spheroids): -ve
Human plasma Cmax,u [10]: 7.743 µM
Structure (SMILES): CN(C)C(=N)N=C(N)N [metformin]
Cluster 1-6 +VE Assay [1]: +VE
Assigned DILI category ([2]; Chen et al. 2016 or literature alignment, ref Chen et al. 2016): 2
In vivo DILI ([2]; ref Garside 2014): +VE
In vivo DILI ([2]; ref O'Brien 2006): -VE
In vivo DILI ([2]; ref Porceddu 2012): +VE
In vivo DILI ([2]; ref Proctor 2017): +VE
In vivo DILI ([2]; ref Schadt 2015): -VE
Cmax [3]: 7.82 µM
Structural based (HCI) (HepG2 cells; In vitro Assay, ref O'Brien 2006): +VE
DILI in vitro assay prediction, O'Brien (2006) (HepG2 cells; Structural based (HCI), HepG2, ref O'Brien et al. 2006): +VE (lowest HCI endpoint IC50 (or in the absence of dose–response < 100 µM) < 30 × total human plasma exposure levels (Cmax.tot))
PHH/100xCmax, Proctor (2017) (PHH; 2D PHH, ATP, IC50 < 100 × Cmax.tot, ref Proctor et al. 2017): -VE
PHH/100uM, Proctor (2017) (PHH; [12]): -VE
PHH ATP <100uM (PHH): -VE
DILI in vitro assay prediction, Schadt (2015) ([4]; BSEP & Metabolism based, ref Schadt et al. 2015): -VE
Cellular toxicity (3T3 cells) [4, 13]: -VE
Combined Assay [4, 13]: -VE
GSH adduct HML [4, 13]: -VE
Hepatocyte cellular toxicity [4, 13]: -VE
MitoTox 3T3 [4, 13]: -VE
TDI CYP3A4 [4, 13]: -VE
hBSEP inhibition [4, 13]: -VE
DILI prediction hLiMTs, HCI alone (hLiMTs [5]; HCS endpoints only, 25 × Cmax.tot cut-off): detection
AC50 (hLiMTs [5]; Homo sapiens, read-out: ATP endpoint AC50): 768 µM
minimal effective concentration (hLiMTs [5]; Homo sapiens, read-out: ATP endpoint MEC): 503 µM
minimal effective concentration (hLiMTs [5]; [14]): 28.1 µM
DILI prediction hLiMTs, ATP alone (hLiMTs [5]; cellular ATP only, 25 × Cmax.tot cut-off): unpredicted
fu [6]: 0.990
DILI severity category (Chen et al. [2016]) ([7]; LTKB DILIrank category, ref Chen et al. 2016): Less
DILI severity category (Chen 2016) ([7]; human DILI classification, LTKB DILIrank, ref Chen et al. 2016): Less
DILI severity category ([7]; human DILI severity, ref Chen et al.): Less
DILI +VE (5-8), DILI -VE (-4) ([7]; ref Chen 2016): +VE
DILI severity category ([7]; ref Chen 2016): vLess-DILI-Concern
DILI prediction HepaRG spheroids (HCS-MEC) (HepaRG spheroids): -VE
in vitro data EC2<=1x Cmax [8]: +VE
in vitro data EC20<=2uM [8]: -VE
hLiMTs ATP <100uM (hLiMTs [9]): -VE
hLiMTs/100xCmax, Proctor (2017) (hLiMTs [9]; hLiMTs, ATP, IC50 < 100 × Cmax.tot, ref Proctor et al. 2017): -VE
hLiMTs/100uM, Proctor (2017) (hLiMTs [9]; [15]): -VE

hLiMTs <25x Avg Cmax ATP (hLiMTs [5]): -ve
hLiMTs <100x Avg Cmaxu ATP (hLiMTs [5]): -ve
hLiMTs <25x Avg Cmax HCS (hLiMTs [5]): -ve
hLiMTs <100x Avg Cmaxu HCS (hLiMTs [5]): +ve (<100x Avg Cmaxu)
hLiMTs <25x Avg Cmax All (hLiMTs [5]): -ve
hLiMTs Cmax max All (hLiMTs [5]): -ve
hLiMTs Cmax min All (hLiMTs [5]): -ve
hLiMTs <10 uM All (hLiMTs [5]): -ve
hLiMTs <100x Avg Cmaxu All (hLiMTs [5]): +ve (<100x Avg Cmaxu)
HepaRG <25x Avg Cmax ATP (HepaRG spheroids): -ve
HepaRG <100x Avg Cmaxu ATP (HepaRG spheroids): -ve
HepaRG <25x Avg Cmax HCS (HepaRG spheroids): -ve
HepaRG <100x Avg Cmaxu HCS (HepaRG spheroids): -ve
HepaRG <25x Avg Cmax All (HepaRG spheroids): -ve
HepaRG Cmax max All (HepaRG spheroids): -ve
HepaRG Cmax min All (HepaRG spheroids): -ve
HepaRG <10 uM All (HepaRG spheroids): -ve
HepaRG <100x Avg Cmaxu All (HepaRG spheroids): -ve
Human plasma Cmax,u [10]: 1.183 µM
Structure (SMILES): Nc1cc(N2CCCCC2)nc(N)[n+]1[O-] [minoxidil]
Assigned DILI category ([2]; in vivo): 1
In vivo DILI ([2]; in vivo): -VE
Cmax [3]: 1.2 µM
PHH/100uM, Proctor (2017) (PHH; [12]): -VE
PHH ATP <100uM (PHH): -VE
minimal effective concentration (hLiMTs [5]; [14]): 111 µM
DILI prediction hLiMTs (HCS-MEC) (hLiMTs [5]; Microtissue model structural based (HCI), combined HCS and ATP, MEC < 25 × Cmax.tot cut-off): -VE
fu [6]: 0.990
DILI +VE (5-8), DILI -VE (-4) ([7]; in vivo): -VE
DILI severity category (Chen 2016) ([7]; in vivo): No
DILI severity category (Chen et al. [2016]) ([7]; in vivo): No
DILI prediction HepaRG spheroids (HCS-MEC) (HepaRG spheroids): -VE
hLiMTs ATP <100uM (hLiMTs [9]): -VE
hLiMTs/100uM, Proctor (2017) (hLiMTs [9]; [15]): -VE
Partition Hybrid HRM Score ≥8, Aleo (2019) [11]: -VE
Rule of Two hybrid HRM Score ≥8, Aleo (2019) [11]: -VE
